# Measurements as given in patent publication US20110201016A1, “METHOD FOR DETECTING MODULATOR FOR REGULATING ACTIVITY OF CELLULAR COMPONENT IN CELL” (MEDISCOV INC., priority 2010, published 2011).
# Legend:
# [1] = target: T1, BLK (Homo sapiens, UniProt P51451, G2A); assay: Binding of dasatinib-magnetic substance to EGFP-labelled kinase in cells (magnetic pattern co-localization); format: cell-based; conditions: BLK-EGFP (G2A) in HeLa cells; dasatinib-biotin coated on streptavidin magnetic substance; magnetic field
# T1 construct: the ORF without the stop codon was amplified for each gene by PCR; expressed in transfected cells; host or cells: HeLa
# T1 sequence (P51451 whole entry G2A): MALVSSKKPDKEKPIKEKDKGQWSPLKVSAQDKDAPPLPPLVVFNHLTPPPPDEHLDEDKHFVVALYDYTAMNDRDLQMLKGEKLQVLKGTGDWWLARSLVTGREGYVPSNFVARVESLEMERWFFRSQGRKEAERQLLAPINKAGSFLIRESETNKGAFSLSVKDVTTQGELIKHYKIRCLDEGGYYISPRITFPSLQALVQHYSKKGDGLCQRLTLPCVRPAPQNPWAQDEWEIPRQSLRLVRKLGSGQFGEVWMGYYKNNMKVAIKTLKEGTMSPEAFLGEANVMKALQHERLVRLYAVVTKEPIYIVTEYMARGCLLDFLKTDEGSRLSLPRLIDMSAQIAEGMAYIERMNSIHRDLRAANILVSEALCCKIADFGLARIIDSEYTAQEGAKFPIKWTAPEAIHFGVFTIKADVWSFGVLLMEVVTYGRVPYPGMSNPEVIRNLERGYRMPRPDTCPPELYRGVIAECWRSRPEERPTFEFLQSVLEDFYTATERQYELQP
# Excerpt: (§1) Bioconjug. […] Adv. Mater. […] J. Am. Chem. Soc. 130, 16466].
# (§2) J. Am. Chem. Soc. 130, 16466].
# (§3) Nature 255: 706]. […] J. Am. Chem. Soc. 130, 16466].
# (§4) The result is illustrated in FIG. 2.
# [2] = target: T2, LYN (Homo sapiens, UniProt P07948, G2A); assay: as above; format: cell-based; conditions: LYN-EGFP (G2A) in HeLa cells; dasatinib-biotin coated on streptavidin magnetic substance; magnetic field
# T2 construct: the ORF without the stop codon was amplified for each gene by PCR; expressed in transfected cells; host or cells: HeLa
# T2 sequence (P07948 1-491 isoform P07948-2 G2A): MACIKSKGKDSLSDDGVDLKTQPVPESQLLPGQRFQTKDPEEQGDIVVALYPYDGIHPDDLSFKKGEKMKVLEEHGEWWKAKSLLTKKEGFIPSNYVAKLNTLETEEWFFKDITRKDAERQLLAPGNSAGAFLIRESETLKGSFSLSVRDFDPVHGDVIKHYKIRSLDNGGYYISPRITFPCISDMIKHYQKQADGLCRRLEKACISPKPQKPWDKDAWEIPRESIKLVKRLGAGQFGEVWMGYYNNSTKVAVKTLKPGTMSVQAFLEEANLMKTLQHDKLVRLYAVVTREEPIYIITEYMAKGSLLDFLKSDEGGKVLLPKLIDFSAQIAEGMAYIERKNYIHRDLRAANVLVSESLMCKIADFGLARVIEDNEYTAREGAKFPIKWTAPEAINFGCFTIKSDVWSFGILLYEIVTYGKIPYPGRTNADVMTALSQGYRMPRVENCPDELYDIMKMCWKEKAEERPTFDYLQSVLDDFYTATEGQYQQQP
# Excerpt: as §1, §2, §3, §4
# [3] = target: T3, RIPK2 (Homo sapiens, UniProt O43353); assay: as above; format: cell-based; conditions: RIPK2-EGFP in HeLa cells; dasatinib-biotin coated on streptavidin magnetic substance; magnetic field
# T3 construct: the ORF without the stop codon was amplified for each gene by PCR; expressed in transfected cells; host or cells: HeLa
# T3 sequence (O43353 whole entry): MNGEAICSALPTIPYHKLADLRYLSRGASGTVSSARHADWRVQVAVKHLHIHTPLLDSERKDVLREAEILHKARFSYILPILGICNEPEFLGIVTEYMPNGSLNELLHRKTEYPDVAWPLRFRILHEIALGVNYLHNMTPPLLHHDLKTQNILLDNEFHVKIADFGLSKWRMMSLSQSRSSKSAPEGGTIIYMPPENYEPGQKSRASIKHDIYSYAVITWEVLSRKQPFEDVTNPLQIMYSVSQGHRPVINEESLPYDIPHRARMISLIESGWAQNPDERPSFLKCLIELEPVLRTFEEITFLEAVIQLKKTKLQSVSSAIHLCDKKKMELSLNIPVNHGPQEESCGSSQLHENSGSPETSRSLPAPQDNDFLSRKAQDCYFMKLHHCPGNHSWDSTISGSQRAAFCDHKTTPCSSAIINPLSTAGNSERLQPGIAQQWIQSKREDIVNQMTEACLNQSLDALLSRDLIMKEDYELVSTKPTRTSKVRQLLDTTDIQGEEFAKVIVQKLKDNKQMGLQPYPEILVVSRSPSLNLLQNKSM
# Excerpt: as §1, §2, §3, §4
# [4] = target: T4, SNF1LK (Homo sapiens, UniProt P57059); assay: as above; format: cell-based; conditions: SNF1LK-EGFP in HeLa cells; dasatinib on magnetic substance; no reactive competitor
# T4 construct: the ORF without the stop codon was amplified for each gene by PCR and then cloned into an expression vector; expressed in transfected cells; host or cells: HeLa
# T4 sequence (P57059 whole entry): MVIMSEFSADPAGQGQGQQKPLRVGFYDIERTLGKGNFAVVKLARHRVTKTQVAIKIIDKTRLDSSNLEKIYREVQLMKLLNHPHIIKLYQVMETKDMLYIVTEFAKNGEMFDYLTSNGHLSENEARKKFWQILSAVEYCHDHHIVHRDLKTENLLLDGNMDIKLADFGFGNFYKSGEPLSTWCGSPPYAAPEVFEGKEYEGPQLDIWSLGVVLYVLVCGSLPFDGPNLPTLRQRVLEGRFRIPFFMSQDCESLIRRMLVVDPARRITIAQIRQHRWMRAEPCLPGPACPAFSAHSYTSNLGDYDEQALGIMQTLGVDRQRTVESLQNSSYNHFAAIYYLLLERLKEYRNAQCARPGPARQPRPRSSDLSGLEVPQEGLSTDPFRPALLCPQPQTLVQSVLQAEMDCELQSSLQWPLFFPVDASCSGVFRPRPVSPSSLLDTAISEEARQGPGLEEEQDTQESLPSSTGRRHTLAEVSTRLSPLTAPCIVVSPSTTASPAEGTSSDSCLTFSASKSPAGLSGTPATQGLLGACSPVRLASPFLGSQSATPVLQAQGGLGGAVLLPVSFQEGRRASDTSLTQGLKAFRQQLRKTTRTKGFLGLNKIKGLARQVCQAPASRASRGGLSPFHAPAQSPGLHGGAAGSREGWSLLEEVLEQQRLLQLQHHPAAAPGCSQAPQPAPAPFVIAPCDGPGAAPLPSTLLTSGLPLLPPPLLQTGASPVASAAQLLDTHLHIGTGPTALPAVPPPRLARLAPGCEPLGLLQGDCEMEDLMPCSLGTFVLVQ
# Excerpt: as §1, §2, §3
# [5] = target: T1, BLK; assay: Competition reaction with dasatinib-magnetic substance for EGFP-labelled kinase in cells; format: cell-based; conditions: BLK-EGFP in HeLa cells; 10 μM reactive competitor for 30 minutes to 2 hours
# [6] = target: T2, LYN; assay: as above; format: cell-based; conditions: LYN-EGFP in HeLa cells; 10 μM reactive competitor for 30 minutes to 2 hours
# [7] = target: T5, KIT (Homo sapiens, UniProt P10721); assay: as above; format: cell-based; conditions: KIT-EGFP in HeLa cells; 10 μM reactive competitor for 30 minutes to 2 hours
# T5 construct: only the region of the amino acids 545 to 976 was amplified by PCR; expressed in transfected cells; host or cells: HeLa
# T5 sequence (P10721 545-976): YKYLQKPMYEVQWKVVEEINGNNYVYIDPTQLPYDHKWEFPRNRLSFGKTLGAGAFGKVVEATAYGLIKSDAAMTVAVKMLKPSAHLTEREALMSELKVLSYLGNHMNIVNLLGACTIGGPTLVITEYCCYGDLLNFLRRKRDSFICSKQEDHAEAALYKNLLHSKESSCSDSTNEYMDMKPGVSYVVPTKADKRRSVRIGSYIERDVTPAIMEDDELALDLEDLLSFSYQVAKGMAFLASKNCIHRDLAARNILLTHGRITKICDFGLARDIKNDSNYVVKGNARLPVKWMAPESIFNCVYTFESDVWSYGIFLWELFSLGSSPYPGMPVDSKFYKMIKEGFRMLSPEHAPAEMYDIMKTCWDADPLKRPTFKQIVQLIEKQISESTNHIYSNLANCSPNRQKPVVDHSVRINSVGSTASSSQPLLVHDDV
# [8] = target: T3, RIPK2; assay: as above; format: cell-based; conditions: RIPK2-EGFP in HeLa cells; 10 μM reactive competitor for 30 minutes to 2 hours
# [9] = target: T4, SNF1LK; assay: as above; format: cell-based; conditions: SNF1LK-EGFP in HeLa cells; 10 μM reactive competitor for 30 minutes to 2 hours
# [10] = test system: ABL2; assay: as above; conditions: EGFP-ABL2 in HeLa cells; 10 μM reactive competitor for 30 minutes to 2 hours
# [11] = target: T6, CSK (Homo sapiens, UniProt P41240); assay: as above; conditions: CSK-EGFP in HeLa cells; 10 μM reactive competitor for 30 minutes to 2 hours
# [12] = target: T7, FGR (Homo sapiens, UniProt P09769, G2A); assay: as above; conditions: FGR-EGFP in HeLa cells; 10 μM reactive competitor for 30 minutes to 2 hours
# [13] = target: T8, MAPK14 (Homo sapiens, UniProt Q16539); assay: as above; conditions: MAPK14-EGFP in HeLa cells; 10 μM reactive competitor for 30 minutes to 2 hours
# T8 sequence (Q16539 1-360 isoform Q16539-2): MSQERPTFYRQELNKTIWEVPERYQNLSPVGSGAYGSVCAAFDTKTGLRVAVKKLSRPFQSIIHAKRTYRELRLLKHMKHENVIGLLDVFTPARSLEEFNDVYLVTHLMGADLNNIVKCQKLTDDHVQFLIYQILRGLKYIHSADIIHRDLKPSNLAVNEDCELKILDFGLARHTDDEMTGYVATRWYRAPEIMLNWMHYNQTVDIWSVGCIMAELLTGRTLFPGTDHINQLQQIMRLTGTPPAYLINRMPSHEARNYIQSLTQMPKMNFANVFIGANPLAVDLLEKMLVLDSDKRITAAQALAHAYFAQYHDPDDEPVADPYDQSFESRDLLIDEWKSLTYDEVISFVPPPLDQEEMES
# [14] = test system: ABL2; assay: Binding of dasatinib-magnetic substance to EGFP-labelled kinase in cells (magnetic pattern co-localization); conditions: EGFP-ABL2 in HeLa cells; dasatinib-biotin coated on streptavidin magnetic substance; magnetic field
# [15] = target: T6, CSK; assay: as above; conditions: CSK-EGFP in HeLa cells; dasatinib-biotin coated on streptavidin magnetic substance; magnetic field
# [16] = target: T7, FGR; assay: as above; conditions: FGR-EGFP (G2A) in HeLa cells; dasatinib-biotin coated on streptavidin magnetic substance; magnetic field
# [17] = target: T8, MAPK14; assay: as above; conditions: MAPK14-EGFP in HeLa cells; dasatinib on magnetic substance; no reactive competitor
fluorescent pattern of kinase-EGFP overlapped with magnetization pattern (binding) [4],fluorescent pattern of kinase-EGFP overlapped with magnetization pattern (binding) [17],Structure (SMILES),fluorescent pattern of kinase-EGFP overlapped with magnetization pattern (binding) [1],fluorescent pattern of kinase-EGFP overlapped with magnetization pattern (binding) [2],fluorescent pattern of kinase-EGFP overlapped with magnetization pattern (binding) [3],competition with dasatinib-magnetic substance: fluorescent pattern overlapped with magnetization pattern [5],competition with dasatinib-magnetic substance: fluorescent pattern overlapped with magnetization pattern [6],competition with dasatinib-magnetic substance: fluorescent pattern overlapped with magnetization pattern [7],competition with dasatinib-magnetic substance: fluorescent pattern overlapped with magnetization pattern [8],competition with dasatinib-magnetic substance: fluorescent pattern overlapped with magnetization pattern [9],competition with dasatinib-magnetic substance: fluorescent pattern overlapped with magnetization pattern [10],competition with dasatinib-magnetic substance: fluorescent pattern overlapped with magnetization pattern [11],competition with dasatinib-magnetic substance: fluorescent pattern overlapped with magnetization pattern [12],competition with dasatinib-magnetic substance: fluorescent pattern overlapped with magnetization pattern [13],fluorescent pattern of kinase-EGFP overlapped with magnetization pattern (binding) [14],fluorescent pattern of kinase-EGFP overlapped with magnetization pattern (binding) [15],fluorescent pattern of kinase-EGFP overlapped with magnetization pattern (binding) [16]
interacted,interacted,"Cc1nc(Nc2ncc(C(=O)Nc3c(C)cccc3Cl)s2)cc(N2CCN(CCO)CC2)n1 [dasatinib, N-(2-chloro-6-methyl-phenyl)-2-(6-(4-(2-hydroxyethyl)-piperazin-1-yl)-2-methylpyrimidin-4-ylamino)thiazole-5-carboxamide]",showed the fluorescent patterns aligned in a magnetized direction,showed the fluorescent patterns aligned in a magnetized direction,showed the fluorescent patterns aligned in a magnetized direction,fluorescent pattern overlapped with an induced magnetization pattern of the magnetic substances was not observed,fluorescent pattern overlapped with an induced magnetization pattern of the magnetic substances was not observed,fluorescent pattern overlapped with an induced magnetization pattern of the magnetic substances was not observed,fluorescent pattern overlapped with an induced magnetization pattern of the magnetic substances was not observed,fluorescent pattern overlapped with an induced magnetization pattern of the magnetic substances was not observed,fluorescent pattern overlapped with an induced magnetization pattern of the magnetic substances was not observed,fluorescent pattern overlapped with an induced magnetization pattern of the magnetic substances was not observed,fluorescent pattern overlapped with an induced magnetization pattern of the magnetic substances was not observed,fluorescent pattern overlapped with an induced magnetization pattern of the magnetic substances was not observed,showed the fluorescent patterns aligned in a magnetized direction,showed the fluorescent patterns aligned in a magnetized direction,showed the fluorescent patterns aligned in a magnetized direction
–,–,Cc1ccc(NC(=O)c2ccc(CN3CCN(C)CC3)cc2)cc1Nc1nccc(-c2cccnc2)n1 [imatinib],–,–,–,–,–,interacts,–,–,–,–,–,–,–,–,–
